Results taken from ChEMBL document CHEMBL1275550, “In vitro activity of doripenem, a carbapenem for the treatment of challenging infections caused by gram-negative bacteria, against recent clinical isolates from the United States” (2008).
≈ marks a conversion by molar mass, not a printed value.

Assays:
Enterobacteriaceae [1] = test: Antimicrobial activity against Enterobacteriaceae by broth microdilution method; assay type: functional
Enterobacteriaceae [2] = test: Antimicrobial activity against ceftazidime-susceptible Enterobacteriaceae by broth microdilution method; assay type: functional
Enterobacteriaceae [3] = test: Antimicrobial activity against Enterobacteriaceae assessed as susceptible isolate by broth microdilution method; assay type: functional
Enterobacteriaceae [4] = test: Antimicrobial activity against ceftazidime-susceptible Enterobacteriaceae assessed as susceptible isolate by broth microdilution method; assay type: functional
Enterobacteriaceae [5] = test: Antimicrobial activity against ceftazidime-susceptible Enterobacteriaceae assessed as intermediate isolate by broth microdilution method; assay type: functional
Enterobacteriaceae [6] = test: Antimicrobial activity against ceftazidime-susceptible Enterobacteriaceae assessed as resistant isolate by broth microdilution method; assay type: functional
Enterobacteriaceae [7] = test: Antimicrobial activity against Ceftazidime non-susceptible Enterobacteriaceae assessed as intermediate isolate by broth microdilution method; assay type: functional
Escherichia coli [8] = test: Antimicrobial activity against Non-ESBL Escherichia coli assessed as susceptible isolate by broth microdilution method; assay type: functional
Escherichia coli [9] = test: Antimicrobial activity against ESBL producing Escherichia coli assessed as susceptible isolate by broth microdilution method; assay type: functional
Klebsiella pneumoniae [10] = test: Antimicrobial activity against Klebsiella pneumoniae by broth microdilution method; assay type: functional
Klebsiella pneumoniae [11] = test: Antimicrobial activity against ESBL producing Klebsiella pneumoniae by broth microdilution method; assay type: functional
Klebsiella pneumoniae [12] = test: Antimicrobial activity against ESBL producing Klebsiella pneumoniae assessed as intermediate isolate by broth microdilution method; assay type: functional
Proteus mirabilis [13] = test: Antimicrobial activity against Non-ESBL Proteus mirabilis by broth microdilution method; assay type: functional
Proteus mirabilis [14] = test: Antimicrobial activity against ESBL producing Proteus mirabilis by broth microdilution method; assay type: functional
Proteus mirabilis [15] = test: Antimicrobial activity against Proteus mirabilis assessed as susceptible isolate by broth microdilution method; assay type: functional
Pseudomonas aeruginosa [16] = test: Antimicrobial activity against Pseudomonas aeruginosa isolated from non-ICU patient by broth microdilution method; assay type: functional
Pseudomonas aeruginosa [17] = test: Antimicrobial activity against Pseudomonas aeruginosa isolated from ICU patient by broth microdilution method; assay type: functional
Proteus mirabilis [18] = test: Antimicrobial activity against Non-ESBL Proteus mirabilis assessed as susceptible isolate by broth microdilution method; assay type: functional
Proteus mirabilis [19] = test: Antimicrobial activity against ESBL producing Proteus mirabilis assessed as susceptible isolate by broth microdilution method; assay type: functional
Enterobacter cloacae [20] = test: Antimicrobial activity against Enterobacter cloacae with nonderepressed AmpC beta-lactamsae by broth microdilution method; assay type: functional
Enterobacter cloacae [21] = test: Antimicrobial activity against Enterobacter cloacae with derepressed AmpC beta-lactamsae by broth microdilution method; assay type: functional
Enterobacter cloacae [22] = test: Antimicrobial activity against Enterobacter cloacae assessed as susceptible isolate by broth microdilution method; assay type: functional
Enterobacter cloacae [23] = test: Antimicrobial activity against Enterobacter cloacae with nonderepressed AmpC beta-lactamsae assessed as intermediate isolate by broth microdilution method; assay type: functional
Enterobacter cloacae [24] = test: Antimicrobial activity against Enterobacter cloacae with derepressed AmpC beta-lactamsae assessed as susceptible isolate by broth microdilution method; assay type: functional
Citrobacter [25] = test: Antimicrobial activity against Citrobacter by broth microdilution method; assay type: functional
Citrobacter [26] = test: Antimicrobial activity against Citrobacter with derepressed AmpC beta-lactamsae by broth microdilution method; assay type: functional
Citrobacter [27] = test: Antimicrobial activity against Citrobacter assessed as susceptible isolate by broth microdilution method; assay type: functional
Citrobacter [28] = test: Antimicrobial activity against Citrobacter with derepressed AmpC beta-lactamsae assessed as susceptible isolate by broth microdilution method; assay type: functional
Citrobacter [29] = test: Antimicrobial activity against Citrobacter with derepressed AmpC beta-lactamsae assessed as intermediate isolate by broth microdilution method; assay type: functional
Serratia marcescens [30] = test: Antimicrobial activity against Ceftazidime susceptible Serratia marcescens by broth microdilution method; assay type: functional
Serratia marcescens [31] = test: Antimicrobial activity against Serratia marcescens assessed as susceptible isolate by broth microdilution method; assay type: functional
Serratia marcescens [32] = test: Antimicrobial activity against Ceftazidime susceptible Serratia marcescens assessed as susceptible isolate by broth microdilution method; assay type: functional
Serratia marcescens [33] = test: Antimicrobial activity against Ceftazidime non-susceptible Serratia marcescens assessed as susceptible isolate by broth microdilution method; assay type: functional
Pseudomonas aeruginosa [34] = test: Antimicrobial activity against Pseudomonas aeruginosa by broth microdilution method; assay type: functional
Pseudomonas aeruginosa [35] = test: Antimicrobial activity against Ceftazidime susceptible Pseudomonas aeruginosa by broth microdilution method; assay type: functional
Pseudomonas aeruginosa [36] = test: Antimicrobial activity against imipenem susceptible Pseudomonas aeruginosa by broth microdilution method; assay type: functional
Pseudomonas aeruginosa [37] = test: Antimicrobial activity against imipenem non-susceptible Pseudomonas aeruginosa by broth microdilution method; assay type: functional
Pseudomonas aeruginosa [38] = test: Antimicrobial activity against Pseudomonas aeruginosa assessed as susceptible isolate by broth microdilution method; assay type: functional
Pseudomonas aeruginosa [39] = test: Antimicrobial activity against Ceftazidime susceptible Pseudomonas aeruginosa assessed as intermediate isolate by broth microdilution method; assay type: functional
Pseudomonas aeruginosa [40] = test: Antimicrobial activity against Ceftazidime susceptible Pseudomonas aeruginosa assessed as resistant isolate by broth microdilution method; assay type: functional
Pseudomonas aeruginosa [41] = test: Antimicrobial activity against Ceftazidime non-susceptible Pseudomonas aeruginosa assessed as susceptible isolate by broth microdilution method; assay type: functional
Pseudomonas aeruginosa [42] = test: Antimicrobial activity against Ceftazidime non-susceptible Pseudomonas aeruginosa assessed as intermediate isolate by broth microdilution method; assay type: functional
Pseudomonas aeruginosa [43] = test: Antimicrobial activity against Ceftazidime non-susceptible Pseudomonas aeruginosa assessed as resistant isolate by broth microdilution method; assay type: functional
Pseudomonas aeruginosa [44] = test: Antimicrobial activity against imipenem susceptible Pseudomonas aeruginosa assessed as susceptible isolate by broth microdilution method; assay type: functional
Pseudomonas aeruginosa [45] = test: Antimicrobial activity against imipenem susceptible Pseudomonas aeruginosa assessed as intermediate isolate by broth microdilution method; assay type: functional
Pseudomonas aeruginosa [46] = test: Antimicrobial activity against imipenem non-susceptible Pseudomonas aeruginosa assessed as susceptible isolate by broth microdilution method; assay type: functional
Pseudomonas aeruginosa [47] = test: Antimicrobial activity against imipenem non-susceptible Pseudomonas aeruginosa assessed as intermediate isolate by broth microdilution method; assay type: functional
Acinetobacter [48] = test: Antimicrobial activity against Acinetobacter by broth microdilution method; assay type: functional
Acinetobacter [49] = test: Antimicrobial activity against imipenem non-susceptible Acinetobacter assessed as resistant isolate by broth microdilution method; assay type: functional
Staphylococcus aureus = test: Antimicrobial activity against methicillin-susceptible Staphylococcus aureus by broth microdilution method; assay type: functional
Streptococcus pneumoniae = test: Antimicrobial activity against penicillin-resistant Streptococcus pneumoniae by broth microdilution method; assay type: functional
Pseudomonas aeruginosa [50] = test: Antimicrobial activity against Pseudomonas aeruginosa isolated from patient by broth microdilution method
Pseudomonas aeruginosa [51] = test: Antimicrobial activity against Pseudomonas aeruginosa isolated from non-ICU patient by broth microdilution method
Pseudomonas aeruginosa [52] = test: Antimicrobial activity against Pseudomonas aeruginosa isolated from ICU patient assessed as resistant isolate by broth microdilution method

SMILES: C[C@@H](O)[C@H]1C(=O)N2C(C(=O)O)=C(S[C@@H]3CN[C@H](C(=O)N(C)C)C3)[C@H](C)[C@H]12 [MEROPENEM]
- MIC50 (Enterobacteriaceae [1]): 0.06 µg/mL (≈ 0.156 µM)
- MIC90 (Enterobacteriaceae [1]): 0.12 µg/mL (≈ 0.313 µM)
- MIC50 (Enterobacteriaceae [2]): 0.06 µg/mL (≈ 0.156 µM)
- MIC90 (Enterobacteriaceae [2]): 0.12 µg/mL (≈ 0.313 µM)
- Activity (Enterobacteriaceae [3]): 99.8%
- Activity (Enterobacteriaceae [4]): 99.6%
- Activity (Enterobacteriaceae [5]): 0%
- Activity (Enterobacteriaceae [6]): 0.1%
- Activity (Enterobacteriaceae [7]): 0.7%
- Activity (Escherichia coli [8]): 100%
- Activity (Escherichia coli [9]): 100%
- MIC50 (Klebsiella pneumoniae [10]): 0.06 µg/mL (≈ 0.156 µM)
- MIC90 (Klebsiella pneumoniae [10]): 0.06 µg/mL (≈ 0.156 µM)
- MIC50 (Klebsiella pneumoniae [11]): 0.06 µg/mL (≈ 0.156 µM)
- MIC90 (Klebsiella pneumoniae [11]): 0.25 µg/mL (≈ 0.652 µM)
- Activity (Klebsiella pneumoniae [12]): 0%
- MIC50 (Proteus mirabilis [13]): 0.12 µg/mL (≈ 0.313 µM)
- MIC90 (Proteus mirabilis [13]): 0.25 µg/mL (≈ 0.652 µM)
- MIC (Proteus mirabilis [14]): 0.12 µg/mL (≈ 0.313 µM)
- Activity (Proteus mirabilis [15]): 100%
- MIC50 (Pseudomonas aeruginosa [16]): 1 µg/mL (≈ 2.61 µM)
- MIC90 (Pseudomonas aeruginosa [16]): 16 µg/mL (≈ 41.7 µM)
- MIC50 (Pseudomonas aeruginosa [17]): 1 µg/mL (≈ 2.61 µM)
- MIC90 (Pseudomonas aeruginosa [17]): 32 µg/mL (≈ 83.4 µM)
- Activity (Proteus mirabilis [18]): 100%
- Activity (Proteus mirabilis [19]): 100%
- MIC50 (Enterobacter cloacae [20]): 0.06 µg/mL (≈ 0.156 µM)
- MIC90 (Enterobacter cloacae [20]): 0.12 µg/mL (≈ 0.313 µM)
- MIC50 (Enterobacter cloacae [21]): 0.25 µg/mL (≈ 0.652 µM)
- MIC90 (Enterobacter cloacae [21]): 0.5 µg/mL (≈ 1.3 µM)
- Activity (Enterobacter cloacae [22]): 99.6%
- Activity (Enterobacter cloacae [23]): 0.5%
- Activity (Enterobacter cloacae [24]): 100%
- MIC50 (Citrobacter [25]): 0.06 µg/mL (≈ 0.156 µM)
- MIC90 (Citrobacter [25]): 0.12 µg/mL (≈ 0.313 µM)
- MIC50 (Citrobacter [26]): 0.12 µg/mL (≈ 0.313 µM)
- MIC90 (Citrobacter [26]): 0.25 µg/mL (≈ 0.652 µM)
- Activity (Citrobacter [27]): 100%
- Activity (Citrobacter [28]): 100%
- Activity (Citrobacter [29]): 0%
- MIC50 (Serratia marcescens [30]): 0.12 µg/mL (≈ 0.313 µM)
- MIC90 (Serratia marcescens [30]): 0.25 µg/mL (≈ 0.652 µM)
- Activity (Serratia marcescens [31]): 99.2%
- Activity (Serratia marcescens [32]): 99.2%
- Activity (Serratia marcescens [33]): 100%
- MIC50 (Pseudomonas aeruginosa [34]): 1 µg/mL (≈ 2.61 µM)
- MIC90 (Pseudomonas aeruginosa [34]): 16 µg/mL (≈ 41.7 µM)
- MIC50 (Pseudomonas aeruginosa [35]): 1 µg/mL (≈ 2.61 µM)
- MIC90 (Pseudomonas aeruginosa [35]): 8 µg/mL (≈ 20.9 µM)
- MIC50 (Pseudomonas aeruginosa [36]): 0.5 µg/mL (≈ 1.3 µM)
- MIC90 (Pseudomonas aeruginosa [36]): 2 µg/mL (≈ 5.22 µM)
- MIC50 (Pseudomonas aeruginosa [37]): 8 µg/mL (≈ 20.9 µM)
- MIC90 (Pseudomonas aeruginosa [37]): 32 µg/mL (≈ 83.4 µM)
- Activity (Pseudomonas aeruginosa [38]): 85.3%
- Activity (Pseudomonas aeruginosa [39]): 4.7%
- Activity (Pseudomonas aeruginosa [40]): 6.5%
- Activity (Pseudomonas aeruginosa [41]): 60.9%
- Activity (Pseudomonas aeruginosa [42]): 3.6%
- Activity (Pseudomonas aeruginosa [43]): 35.5%
- Activity (Pseudomonas aeruginosa [44]): 98.5%
- Activity (Pseudomonas aeruginosa [45]): 0.7%
- Activity (Pseudomonas aeruginosa [46]): 42.5%
- Activity (Pseudomonas aeruginosa [47]): 16.9%
- MIC50 (Acinetobacter [48]): 1 µg/mL (≈ 2.61 µM)
- MIC90 (Acinetobacter [48]): > 32 µg/mL
- Activity (Acinetobacter [49]): 100%
- MIC50 (Staphylococcus aureus): 0.12 µg/mL (≈ 0.313 µM)
- MIC50 (Staphylococcus aureus; Staphylococcus aureus, read-out: MIC50): 0.06 µg/mL (≈ 0.156 µM)
- MIC50 (Streptococcus pneumoniae): 1 µg/mL (≈ 2.61 µM)
- MIC50 (Streptococcus pneumoniae; Streptococcus pneumoniae, read-out: MIC50): 1 µg/mL (≈ 2.61 µM)
- Activity (Pseudomonas aeruginosa [50]): 3.7%
- Activity (Pseudomonas aeruginosa [51]): 83.9%
- Activity (Pseudomonas aeruginosa [52]): 18%
